Laboratory results reported in US5585380A, “Modulation of cellular response to external stimuli” (priority 1995, dated 1996).

Legend:
[1] = test system: IL-6 transcripts in bone marrow stromal cells; experiment: Northern blot of IL-6 transcripts; type: cell-based; settings: three-hour exposure, increasing concentrations; FIG. 16
TNFα = settings: Singer et al.; cited from earlier work
T cell proliferation = settings: Singer et al., cited from earlier work
[2] = test system: lyso-PA acyl transferase (LPAAT); experiment: Invention assay: HPLC of lipids from IL-1-stimulated mesangial cells, LPAAT; type: cell-based, human; settings: compared with 0.5 mM; subsequent determinations
Description: (§1) This example also illustrates the method of the invention.
(§2) Human glomerular mesangial cells were incubated with IL-1 for various time periods of 5-60 seconds and the cells were fixed in ice-cold methanol, and the lipids extracted using chloroform:methanol 2:1 (v/v). It is very important that the fixing/extraction process be conducted quickly so that the decomposition of unstable intermediates is halted.
(§3) The extracts were subjected to HPLC on a Rainin mu-Porasil column with a 3:4 hexane:propanol organic carrier and a 1-10% water gradient during the first 10 minutes of separation. The relative concentration of each lipid species is determined using absorption at 206 nm (A206), which follows unsaturated acyl content of lipid species. […] The absolute mass of each lipid species is determined by lisolation of the lipid using a fraction collector, repurification on the HPLC column. Determination of phospholipid phosphorus is as nmoles/mg cellular protein. Protein concentration is determined using the Bradford technique.

[3] = test system: HLA-DR, CD71, CD25 and CD69 on MLR-stimulated lymphocytes; settings: Singer et al.; cited from earlier work
[4] = test system: SV40 T-antigen-transformed human kidney mesangial cells; experiment: Tritiated thymidine uptake of transformed mesangial cells with rhIL-1 or TNFα; type: cell-based
Description: SV40 T-antigen-transformed human kidney mesangial cells were cultured under standard conditions with rhIL-1 or with TNFα with and without pentoxifylline (PTX). Transformed mesangial cells grow independently of added growth factors, but IL-1 and TNFα are the normal proliferative signals for mesangial cells. As was shown in Example 1, when IL-1 is added to kidney mesangial cells, within 30 seconds LPAAT and PAPH are activated; the effect of both of these enzymes is inhibited by pentoxifylline at 1 mM. In this experiment, the growth of the treated cells was measured using tritiated thymidine uptake.

[5] = test system: human leukemic cell line (Mo7e); experiment: GM-CSF-stimulated colony formation in semisolid medium; type: cell-based; settings: rhGM-CSF; colonies counted after 10 days; FIG. 14
Description: The human leukemic cell line (Mo7e) is dependent on added granulocyte-macrophage colony-stimulating factor (GM-CSF) for growth. Mo7e cells were cultured in semisolid medium with and without pentoxifylline (PTX) and rhGM-CSF. Colonies were counted 10 days after culture initiation under an inverted microscope. […] PTX thus prevents the up-regulation of activation-associated genes which inhibit proliferation.

[6] = test system: phosphatidic acid phosphohydrolase (PAPH); experiment: Invention assay: HPLC of lipids from IL-1-stimulated mesangial cells, PAPH; type: cell-based, human; settings: 0.5 mM; subsequent determinations
Description: as §1, §2, §3

[7] = test system: TNFα transcripts in U937 cells; experiment: Northern blot of TNFα transcripts after LPS induction; type: cell-based; settings: 1 mM PTX; LPS three hours; FIG. 15
[8] = test system: TNF, IL-2 and IL-2 receptor transcripts in CD3 positive lymphocytes; experiment: Northern blots of CD3 positive lymphocytes in a mixed lymphocyte reaction; type: cell-based
[9] = test system: NIH3T3 murine fibroblast cells transformed with a mutated K-ras; experiment: Growth and soft agar colonies of K-ras transformed NIH3T3 cells in vitro; type: cell-based; settings: concentrations at or greater than 0.5 mM
Description: Additionally, NIH3T3 murine fibroblast cells transformed with a mutated K-ras (codon 12 Gly-Val) were tested in vitro and in nude mice.

[10] = test system: PA and DAG levels in human glomerular mesangial cells; experiment: Invention assay: HPLC of lipids from IL-1-stimulated mesangial cells; type: cell-based
Description: The compounds of Formula I are shown to modulate the effects of primary stimuli which elevate levels of the relevant subspecies of PA and DAG using the assay system of the invention. In general for the assay, the cells to be tested are first incubated with the primary stimulating agent for various time periods and fixed in ice-cold methanol. The lipids are extracted using, for example, chloroform:methanol 2:1 (v/v), and the extracts are then subjected to HPLC as described by Bursten and Harris, Biochemistry (1991)------. In this method, a Rainin mu-Porasil column is used with a 3:4 hexane:propanol organic carrier and a 1-10% water gradient during the first 10 minutes of separation. Detection of the peaks in the elution pattern is by absorption in the range of ultraviolet which detects isolated double bonds. Thus, the relevant peaks of unsaturated PA and DAG are shown in the elution pattern. It is important to note that the assay method permits discrimination between various forms of PA and DAG so that those relevant to the pathway affected by the compounds of Formula I can be measured directly. Confirmation of the nature of the acyl substituents of these components is accomplished using fast-atom bombardment mass spectroscopy. Thus, the relevant unsaturated (non-arachidonic) PA and DAG subspecies may be detected. The time periods employed are 5-60 seconds after stimulation with the primary stimulus, such as a cytokine. This technique permits assessment of the levels of various lipid components as a function of time.
To test the effect of the compounds of the invention, the candidate compound is included in the initial incubation at various concentrations. Fixing, extraction and HPLC are conducted as above. The effect of the candidate compound is then reflected in a lowering of the relevant PA and DAG levels as compared to the cells without candidate in the control as illustrated hereinbelow.
as §2
as §3, with “Determination of phospholipid phosphorus is as nmoles/mg cellular protein.” left out, “technique. […]” for “technique.”

CD3-positive lymphocytes = experiment: Proliferation of anti-CD3-stimulated CD2-positive cells (thymidine uptake); type: cell-based; settings: CD2-positive T-cells, adsorbed monoclonal antibody 64.1, harvested after 5 days; IL-1 or TNF failed to reverse; FIG. 21
Description: In these experiments, freshly isolated, CD2-positive cells were stimulated by a solid-phase monoclonal antibody to acquire a CD3 phenotype, and then PTX was added. […] The block in proliferation could not be overcome by addition of either tumor necrosis factor (FIGS. 20 and 21) or IL-1 (FIG. 21). […] The cytokines and PTX were added at culture inception and the cells were harvested after 5 days.

[11] = test system: NIH3T3 cell line (D5C3) transformed with temperature-sensitive v-abl mutant gene; experiment: Blocking transformed phenotype of D5C3 cells; type: cell-based, murine; settings: 1 mM pentoxifylline; 33° C., 5 days
Description: An NIH3T3 cell line ([MUT]) provides target cells which were transformed by an activated oncogene. The cells were transformed with a temperature-sensitive v-abl mutant gene. This mutant gene encodes a temperature-sensitive v-abl protein that produces a non-oncogenic product at a non-permissive temperature due to a lack of tyrosine phosphorylation. The cells were incubated at the permissive temperature (33° C.) for 5 days after passage with and without pentoxifylline (1 mM).

[12] = test system: Steel factor transcripts in marrow stromal cell lines; experiment: Northern blot of Steel factor transcripts; type: cell-based; settings: three-hour incubation; passaged or cloned (CDCL) marrow stromal cell lines; FIGS. 17 and 18
[13] = test system: IL-8 encoding mRNA in U937 and THP1 monocytic cell lines; experiment: Northern blot of IL-8 mRNA after lipopolysaccharide or GM-CSF; type: cell-based; settings: induced by lipopolysaccharide or GM-CSF
Description: The murine fibrosarcoma cell line, L929, was also tested as an indicator for assays of TNF cytotoxicity. Cell growth was assayed by crystal violet staining using optical density as a measure of growth. […] Finally, two monocytic cell lines, U937 and THP1, were used to test the effect of pentoxifylline on the […] of the cytokine IL-8. The cell lines in culture were induced to upregulate IL-8 production by lipopolysaccharide or GM-CSF.

SMILES: CC(=O)CCCCn1c(=O)c2c(ncn2C)n(C)c1=O [Pentoxifylline]
- production of IL-6 transcripts [1]: increased production of IL-6 transcripts
- effect on secretion of TNFα versus TNF transcription (TNFα): greater effect on secretion of TNFα
- proliferative response in a mixed lymphocyte culture (T cell proliferation; PTX added after triggering lymphocytes): still effective in blocking a proliferative response
- proliferation of lymphocytes induced by anti-CD3 (T cell proliferation; exogenous recombinant TNF or IL-1 did not reverse): suppressed proliferation
- inhibitory effect on LPAAT [2]: evident only at higher concentrations
- expression of cell surface antigens HLA-DR, CD71, CD25, CD69 [3]: decreased expression
- proliferative effect of TNF (thymidine uptake) ([4]; TNFα, FIG. 13B): enhances the proliferative effect of TNF
- growth stimulated by IL-1 (thymidine uptake) ([4]; rhIL-1, FIG. 13A): arrested growth
- GM-CSF-stimulated growth of colonies [5]: enhanced GM-CSF-stimulated growth of colonies
- inhibition of PAPH [6]: inhibits PAPH
- TNF RNA in response to LPS stimulation [7]: undetectable level
- TNF transcripts ([8]; FIG. 19A): suppression
- IL-2 receptor transcripts ([8]; FIG. 19C): suppression
- anchorage-independent growth in soft agar [9]: suppression of anchorage-independent growth
- growth in vitro [9]: inhibition of growth
- cyclical formation of PA and conversion of PA to DAG (HPLC) ([10]; 100 μM pentoxifylline, 10^-11 M IL-1, 15- and 60-second points): no change
- conversion of PA to DAG (HPLC) ([10]; 500 μM pentoxifylline, IL-1, 15 second time point): slight attenuation
- elevation of PA and DAG by IL-1 (HPLC) ([10]; 1 mM PTX, all time points (15-60 seconds)): abolishes the elevation of PA and DAG
- thymidine uptake (CD3-positive lymphocytes): diminished by PTX in an concentration-dependent manner
- appearance of cells [11]: predominantly non-transformed, fibroblastic appearance
- levels of Steel factor transcripts [12]: increases
- synthesis of IL-8 (mRNA) [13]: did not inhibit, and indeed may upregulate
